# Results: patent US20250352520A1, “USE OF DEXPRAMIPEXOLE FOR THE TREATMENT OF EOSINOPHILIC COPD” (Areteia Therapeutics, Inc., priority 2024, published 2025)
# Conditions: Week 16; <50% AEC reduction at Week 16
smiles,measurement,value
"CCCN[C@@H]1CCc2nc(N)sc2C1 [Dexpramipexole, (6R)-2-amino-4,5,6,7-tetrahydro-6-(propylamino)benzothiazole]","Pre-BD FEF25-75 % change from baseline, Max",−3%
same,"Pre-BD FEF25-75 % change from baseline, Mean ± SD",−14.5 ± 19.68%
same,"Pre-BD FEF25-75 % change from baseline, Median",−5.5%
same,"Pre-BD FEF25-75 % change from baseline, Min",−44%
same,"Pre-BD FEF25-75 % change from baseline, Q1",−25%
same,"Pre-BD FEF25-75 % change from baseline, Q3",−4%
same,"Pre-BD FEF25-75 Observed, Max",780 mL/s
same,"Pre-BD FEF25-75 Observed, Mean ± SD",505.0 ± 266.15 mL/s
same,"Pre-BD FEF25-75 Observed, Median",505.0 mL/s
same,"Pre-BD FEF25-75 Observed, Min",230 mL/s
same,"Pre-BD FEF25-75 Observed, Q1",280 mL/s
same,"Pre-BD FEF25-75 Observed, Q3",730 mL/s
same,"Pre-BD FEF25-75 change from baseline, Max",-10 mL/s
same,"Pre-BD FEF25-75 change from baseline, Mean ± SD",-170.0 ± 293.94 mL/s
same,"Pre-BD FEF25-75 change from baseline, Median",-30.0 mL/s
same,"Pre-BD FEF25-75 change from baseline, Min",-610 mL/s
same,"Pre-BD FEF25-75 change from baseline, Q1",-330 mL/s
same,"Pre-BD FEF25-75 change from baseline, Q3",-10 mL/s
same,"Pre-BD FEV1 % change from baseline, Max",3%
same,"Pre-BD FEV1 % change from baseline, Mean ± SD",−11.4 ± 15.14%
same,"Pre-BD FEV1 % change from baseline, Median",−8.5%
same,"Pre-BD FEV1 % change from baseline, Min",−32%
same,"Pre-BD FEV1 % change from baseline, Q1",−22%
same,"Pre-BD FEV1 % change from baseline, Q3",0%
same,"Pre-BD FEV1 Observed, Max",1660 mL
same,"Pre-BD FEV1 Observed, Mean ± SD",1280.0 ± 399.67 mL
same,"Pre-BD FEV1 Observed, Median",1370.0 mL
same,"Pre-BD FEV1 Observed, Min",720 mL
same,"Pre-BD FEV1 Observed, Q1",1020 mL
same,"Pre-BD FEV1 Observed, Q3",1540 mL
same,"Pre-BD FEV1 change from baseline, Max",50 mL
same,"Pre-BD FEV1 change from baseline, Mean ± SD",-192.5 ± 318.58 mL
same,"Pre-BD FEV1 change from baseline, Median",-80.0 mL
same,"Pre-BD FEV1 change from baseline, Min",-660 mL
same,"Pre-BD FEV1 change from baseline, Q1",-385 mL
same,"Pre-BD FEV1 change from baseline, Q3",0 mL
same,"Pre-BD FVC % change from baseline, Max",3%
same,"Pre-BD FVC % change from baseline, Mean ± SD",−3.2 ± 7.22%
same,"Pre-BD FVC % change from baseline, Median",−2.0%
same,"Pre-BD FVC % change from baseline, Min",−12%
same,"Pre-BD FVC % change from baseline, Q1",−9%
same,"Pre-BD FVC % change from baseline, Q3",3%
same,"Pre-BD FVC Observed, Max",3380 mL
same,"Pre-BD FVC Observed, Mean ± SD",2900.0 ± 503.26 mL
same,"Pre-BD FVC Observed, Median",2985.0 mL
same,"Pre-BD FVC Observed, Min",2250 mL
same,"Pre-BD FVC Observed, Q1",2510 mL
same,"Pre-BD FVC Observed, Q3",3290 mL
same,"Pre-BD FVC change from baseline, Max",80 mL
same,"Pre-BD FVC change from baseline, Mean ± SD",-95.0 ± 203.55 mL
same,"Pre-BD FVC change from baseline, Median",-80.0 mL
same,"Pre-BD FVC change from baseline, Min",-300 mL
same,"Pre-BD FVC change from baseline, Q1",-270 mL
same,"Pre-BD FVC change from baseline, Q3",80 mL
same,"Pre-BD Peak Flow % change from baseline, Max",930%
same,"Pre-BD Peak Flow % change from baseline, Mean ± SD",236.0 ± 462.72%
same,"Pre-BD Peak Flow % change from baseline, Median",8.1%
same,"Pre-BD Peak Flow % change from baseline, Min",−2%
same,"Pre-BD Peak Flow % change from baseline, Q1",1%
same,"Pre-BD Peak Flow % change from baseline, Q3",471%
same,"Pre-BD Peak Flow Observed, Max",412 L/min
same,"Pre-BD Peak Flow Observed, Mean ± SD",258.0 ± 118.14 L/min
same,"Pre-BD Peak Flow Observed, Median",248.0 L/min
same,"Pre-BD Peak Flow Observed, Min",124 L/min
same,"Pre-BD Peak Flow Observed, Q1",186 L/min
same,"Pre-BD Peak Flow Observed, Q3",331 L/min
same,"Pre-BD Peak Flow change from baseline, Max",372 L/min
same,"Pre-BD Peak Flow change from baseline, Mean ± SD",101.5 ± 180.70 L/min
same,"Pre-BD Peak Flow change from baseline, Median",18.5 L/min
same,"Pre-BD Peak Flow change from baseline, Min",-3 L/min
same,"Pre-BD Peak Flow change from baseline, Q1",5 L/min
same,"Pre-BD Peak Flow change from baseline, Q3",199 L/min
